# Reference: article PMC11111408, “Concurrent inhibition of oncogenic and wild-type RAS-GTP for cancer therapy” (Nature, 2024)
# Test system: PRISM DNA-barcoded human tumour cell lines
# Test: PRISM pooled cell viability assay;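 on PRISM AUC: 8 threefold dilutions from 10 µM with 5 days of exposure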
# Format: cell-based
# Set-up: AUC (PRISM viability) / AUC (PRISM): unit not given beside the values
# Conditions: for AUC (PRISM viability): WT; for PRISM AUC: KRAS MUT
# Experimental: Cells were then lysed in TCL mRNA lysis buffer, and then PCR with reverse transcription was performed. Detection of the barcodes and univariate and multivariate analysis was then performed as previously described. Data analysis is described in the Supplementary Methods. Up-to-date code for our analysis is at the github link: https://github.com/cmap/dockerized_mts.
# For every gene with non-silent mutations in at least four cell-lines, we compared the AUC values between cells with and without those mutations using a t-test. This analysis was carried out for: (i) the full dataset; (ii) excluding cell lines with non-silent KRAS mutations; and (iii) excluding cell lines that have either KRAS or NRAS non-silent mutations.
smiles,measurement,setting,value
CCn1c(-c2cc(N3CCN(C4CC4)CC3)cnc2[C@H](C)OC)c2c3cc(ccc31)-c1csc(n1)C[C@H](NC(=O)[C@H]1[C@@H]3COC[C@@H]31)C(=O)N1CCC[C@H](N1)C(=O)OCC(C)(C)C2 [RMC-7977],AUC (PRISM viability),MPP89_PLEURA,0.9969
same,AUC (PRISM viability),MSTO211H_PLEURA,0.3796
same,AUC (PRISM viability),NALM6_HAEMATOPOIETIC_AND_LYMPHOID_TISSUE,0.7052
same,AUC (PRISM viability),NB1_AUTONOMIC_GANGLIA,0.4921
same,PRISM AUC,NCIH23_LUNG,0.451
same,AUC (PRISM viability),NCIH28_PLEURA,0.6741
same,AUC (PRISM viability),NCIH82_LUNG,0.581
same,AUC (PRISM viability),NCIH196_LUNG,0.9033
same,AUC (PRISM viability),NCIH226_LUNG,0.6197
same,AUC (PRISM viability),NCIH292_LUNG,0.4596
same,AUC (PRISM viability),NCIH322_LUNG,0.4865
same,PRISM AUC,NCIH358_LUNG,0.1803
same,PRISM AUC,NCIH441_LUNG,0.3007
same,AUC (PRISM viability),NCIH446_LUNG,0.8555
same,AUC (PRISM viability),NCIH508_LARGE_INTESTINE,0.3599
same,AUC (PRISM viability),NCIH520_LUNG,0.7662
same,AUC (PRISM viability),NCIH522_LUNG,0.759
same,AUC (PRISM viability),NCIH524_LUNG,0.7662
same,AUC (PRISM viability),NCIH596_LUNG,0.5305
same,PRISM AUC,NCIH647_LUNG,0.7239
same,AUC (PRISM viability),NCIH661_LUNG,0.7122
same,PRISM AUC,NCIH727_LUNG,0.5024
same,PRISM AUC,NCIH747_LARGE_INTESTINE,0.2108
same,AUC (PRISM viability),NCIH838_LUNG,0.8166
same,AUC (PRISM viability),NCIH841_LUNG,0.7846
same,AUC (PRISM viability),NCIH1048_LUNG,0.6373
same,AUC (PRISM viability),NCIH1092_LUNG,0.3222
same,AUC (PRISM viability),NCIH1299_LUNG,0.4354
same,PRISM AUC,NCIH1339_LUNG,0.4553
same,AUC (PRISM viability),NCIH1341_LUNG,0.5477
same,PRISM AUC,NCIH1355_LUNG,0.4521
same,PRISM AUC,NCIH1373_LUNG,0.3791
same,AUC (PRISM viability),NCIH1435_LUNG,0.8637
same,AUC (PRISM viability),NCIH1437_LUNG,0.5969
same,AUC (PRISM viability),NCIH1563_LUNG,0.6189
same,AUC (PRISM viability),NCIH1568_LUNG,0.6734
same,AUC (PRISM viability),NCIH1581_LUNG,0.9998
same,AUC (PRISM viability),NCIH1648_LUNG,0.2199
same,AUC (PRISM viability),NCIH1650_LUNG,0.6245
same,AUC (PRISM viability),NCIH1651_LUNG,0.8871
same,AUC (PRISM viability),NCIH1693_LUNG,0.8183
same,AUC (PRISM viability),NCIH1694_LUNG,0.5791
same,AUC (PRISM viability),NCIH1703_LUNG,0.6825
same,PRISM AUC,NCIH1792_LUNG,0.2139
same,AUC (PRISM viability),NCIH1793_LUNG,0.6312
same,AUC (PRISM viability),NCIH1838_LUNG,0.5855
same,AUC (PRISM viability),NCIH1915_LUNG,0.641
same,PRISM AUC,NCIH1944_LUNG,0.5331
same,AUC (PRISM viability),NCIH1975_LUNG,0.5382
same,AUC (PRISM viability),NCIH2023_LUNG,0.5354
same,AUC (PRISM viability),NCIH2087_LUNG,0.3287
same,AUC (PRISM viability),NCIH2110_LUNG,0.5875
same,PRISM AUC,NCIH2122_LUNG,0.1883
same,AUC (PRISM viability),NCIH2126_LUNG,0.6292
same,AUC (PRISM viability),NCIH2170_LUNG,0.6244
same,AUC (PRISM viability),NCIH2171_LUNG,0.8542
same,AUC (PRISM viability),NCIH2172_LUNG,0.765
same,AUC (PRISM viability),NCIH2228_LUNG,0.4232
same,PRISM AUC,NCIH2444_LUNG,0.2818
same,AUC (PRISM viability),NCIH2452_PLEURA,1
same,AUC (PRISM viability),NCIN87_STOMACH,0.7465
same,AUC (PRISM viability),NCO2_HAEMATOPOIETIC_AND_LYMPHOID_TISSUE,0.625
same,AUC (PRISM viability),NIHOVCAR3_OVARY,0.7506
same,PRISM AUC,NOMO1_HAEMATOPOIETIC_AND_LYMPHOID_TISSUE,0.4639
same,AUC (PRISM viability),NUGC3_STOMACH,0.3156
same,AUC (PRISM viability),NUGC4_STOMACH,0.304
same,AUC (PRISM viability),OAW42_OVARY,0.7122
same,AUC (PRISM viability),OC314_OVARY,0.7084
same,AUC (PRISM viability),OC316_OVARY,0.6527
same,AUC (PRISM viability),OCIAML2_HAEMATOPOIETIC_AND_LYMPHOID_TISSUE,0.8145
same,AUC (PRISM viability),OCIAML3_HAEMATOPOIETIC_AND_LYMPHOID_TISSUE,0.162
same,AUC (PRISM viability),OCILY3_HAEMATOPOIETIC_AND_LYMPHOID_TISSUE,0.7702
same,AUC (PRISM viability),OCIM1_HAEMATOPOIETIC_AND_LYMPHOID_TISSUE,0.5554
same,AUC (PRISM viability),OE19_OESOPHAGUS,0.4503
same,AUC (PRISM viability),OE21_OESOPHAGUS,0.4077
same,AUC (PRISM viability),OE33_OESOPHAGUS,0.4516
same,AUC (PRISM viability),ONCODG1_OVARY,0.8342
same,AUC (PRISM viability),ONS76_CENTRAL_NERVOUS_SYSTEM,0.1792
same,AUC (PRISM viability),OSRC2_KIDNEY,0.7371
same,AUC (PRISM viability),OUMS23_LARGE_INTESTINE,0.9107
same,PRISM AUC,OV7_OVARY,0.3327
same,PRISM AUC,OV56_OVARY,0.6812
same,AUC (PRISM viability),OVISE_OVARY,0.7216
same,AUC (PRISM viability),OVKATE_OVARY,0.7188
same,AUC (PRISM viability),OVTOKO_OVARY,0.7297
same,AUC (PRISM viability),P12ICHIKAWA_HAEMATOPOIETIC_AND_LYMPHOID_TISSUE,0.1917
same,PRISM AUC,PANC1_PANCREAS,0.7301
same,PRISM AUC,PANC0203_PANCREAS,0.1549
same,PRISM AUC,PANC0327_PANCREAS,0.3885
same,PRISM AUC,PANC0403_PANCREAS,0.1969
same,PRISM AUC,PANC0504_PANCREAS,0.2677
same,PRISM AUC,PANC0813_PANCREAS,0.6012
same,PRISM AUC,PANC1005_PANCREAS,0.492
same,PRISM AUC,PATU8902_PANCREAS,0.2883
same,PRISM AUC,PATU8988S_PANCREAS,0.2608
same,PRISM AUC,PATU8988T_PANCREAS,0.5033
same,AUC (PRISM viability),PC3_PROSTATE,0.7599
same,AUC (PRISM viability),PC14_LUNG,0.4618
same,AUC (PRISM viability),PECAPJ15_UPPER_AERODIGESTIVE_TRACT,0.4843
same,AUC (PRISM viability),PECAPJ41CLONED2_UPPER_AERODIGESTIVE_TRACT,0.3318
same,AUC (PRISM viability),PECAPJ49_UPPER_AERODIGESTIVE_TRACT,0.2883
same,AUC (PRISM viability),PF382_HAEMATOPOIETIC_AND_LYMPHOID_TISSUE,0.3397
same,PRISM AUC,PK1_PANCREAS,0.3834
same,PRISM AUC,PK45H_PANCREAS,0.5023
same,PRISM AUC,PK59_PANCREAS,0.2749
same,AUC (PRISM viability),PLCPRF5_LIVER,0.7216
same,PRISM AUC,PSN1_PANCREAS,0.12
same,PRISM AUC,QGP1_PANCREAS,0.3907
same,AUC (PRISM viability),RCC10RGB_KIDNEY,0.7484
same,PRISM AUC,RCM1_LARGE_INTESTINE,0.1259
same,AUC (PRISM viability),RDES_BONE,0.7616
same,AUC (PRISM viability),RD_SOFT_TISSUE,0.207
same,AUC (PRISM viability),RERFGC1B_STOMACH,0.5427
same,PRISM AUC,RERFLCAD2_LUNG,0.4067
same,AUC (PRISM viability),RERFLCAI_LUNG,0.6094
same,AUC (PRISM viability),RERFLCKJ_LUNG,0.8949
same,AUC (PRISM viability),RERFLCMS_LUNG,0.7953
same,AUC (PRISM viability),RH30_SOFT_TISSUE,0.6971
same,AUC (PRISM viability),RI1_HAEMATOPOIETIC_AND_LYMPHOID_TISSUE,0.7681
same,PRISM AUC,RKN_SOFT_TISSUE,0.1266
same,AUC (PRISM viability),RKO_LARGE_INTESTINE,0.9515
same,AUC (PRISM viability),RL952_ENDOMETRIUM,0.342
same,AUC (PRISM viability),RL_HAEMATOPOIETIC_AND_LYMPHOID_TISSUE,0.7851
same,AUC (PRISM viability),RMGI_OVARY,0.5297
same,AUC (PRISM viability),RMUGS_OVARY,0.8312
same,AUC (PRISM viability),RPMI7951_SKIN,0.9756
same,AUC (PRISM viability),RPMI8402_HAEMATOPOIETIC_AND_LYMPHOID_TISSUE,0.7828
same,AUC (PRISM viability),RT4_URINARY_TRACT,0.5133
same,AUC (PRISM viability),RT112_URINARY_TRACT,0.1516
same,AUC (PRISM viability),RVH421_SKIN,0.8566
same,AUC (PRISM viability),SBC5_LUNG,0.6474
same,AUC (PRISM viability),SCABER_URINARY_TRACT,0.3752
same,AUC (PRISM viability),SCC9_UPPER_AERODIGESTIVE_TRACT,0.5257
